Experiments:
PPARδ = target: T1, PPARδ (Homo sapiens, UniProt Q03181); assay: Cross-curve PPAR transactivation test (PPARδ); assay type: cell-based; details: HeLN cells, Gal-hPPARδ, luciferase reporter; cross curves against reference agonist, Schild regression; n.a means not active; read-out: PPARs delta Kd app
T1 sequence (Q03181 171-441 limits assumed): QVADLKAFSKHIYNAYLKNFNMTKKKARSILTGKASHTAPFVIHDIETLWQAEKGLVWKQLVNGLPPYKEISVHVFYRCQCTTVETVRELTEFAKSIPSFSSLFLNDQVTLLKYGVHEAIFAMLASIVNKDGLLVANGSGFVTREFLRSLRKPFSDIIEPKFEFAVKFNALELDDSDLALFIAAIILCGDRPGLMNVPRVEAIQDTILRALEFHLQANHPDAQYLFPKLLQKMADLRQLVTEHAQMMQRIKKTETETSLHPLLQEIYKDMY
Method: (§1) The activation of PPAR receptors with an agonist (activator) in HeLN cells leads to the expression of a reporter gene, luciferase, which, in the presence of a substrate, generates light. The modulation of the PPAR receptors is measured by quantifying the luminescence produced after incubating the cells in the presence of a reference agonist. The ligands displace the agonist from its site. The measurement of the activity is performed by quantifying the light produced. This measurement makes it possible to determine the modulatory activity of the compounds according to the invention by determining the constant that is the affinity of the molecule for the PPAR receptor. Since this value can fluctuate depending on the basal activity and the expression of the receptor, it is referred to as Kd apparent (KdApp in nM).
(§2) To determine this constant, “cross curves” of the test product against a reference agonist are produced in a 96-well plate: 10 concentrations of the test product plus a concentration 0 are arranged in a line, and 7 concentrations of the agonist plus a concentration 0 are arranged in a column. This is 88 measurement points for 1 product and 1 receptor. The remaining 8 wells are used for repeatability controls.
(§3) Measurements are also taken for total agonist controls with the same products.
(§4) The HeLN cell lines used are stable transfectants containing the plasmids ERE-βGlob-Luc-SV-Neo (reporter gene) and PPAR (α, δ, γ) Gal-hPPAR. These cells are inoculated into 96-well plates at a rate of 10 000 cells per well in 100 μl of DMEM medium without phenol red and supplemented with 10% of defatted calf serum. The plates are then incubated at 37° C. and 7% CO2 for 16 hours.
(§5) The various dilutions of the test products and of the reference ligand are added at a rate of 5 μl per well. The plates are then incubated for 18 hours at 37° C. and 7% CO2. The culture medium is removed by turning over and 100 μl of a 1:1 PBS/luciferin mixture are added to each well. After 5 minutes, the plates are read by the luminescence detector.

PPARγ = target: T2, PPARγ (Homo sapiens, UniProt P37231); assay: Cross-curve PPAR transactivation test (PPARγ); assay type: cell-based; details: HeLN cells, Gal-hPPARγ, luciferase reporter; cross curves against reference agonist, Schild regression; n.a means not active; read-out: PPAR gamma Kd app
T2 sequence (P37231 238-505 limits assumed): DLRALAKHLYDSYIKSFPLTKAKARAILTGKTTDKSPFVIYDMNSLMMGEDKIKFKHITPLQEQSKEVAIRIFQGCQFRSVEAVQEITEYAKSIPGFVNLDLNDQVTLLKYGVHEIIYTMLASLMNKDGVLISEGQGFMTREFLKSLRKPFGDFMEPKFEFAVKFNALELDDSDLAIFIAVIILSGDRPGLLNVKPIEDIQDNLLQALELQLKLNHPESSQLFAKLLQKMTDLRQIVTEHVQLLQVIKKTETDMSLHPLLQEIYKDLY
Method: as §1, §2, §3, §4, §5

PPARα = target: T3, PPARα (Homo sapiens, UniProt Q07869); assay: Cross-curve PPAR transactivation test (PPARα); assay type: cell-based; details: HeLN cells, Gal-hPPARα, luciferase reporter; cross curves against reference agonist, Schild regression; n.a means not active; read-out: PPAR alpha Kd app
T3 sequence (Q07869 202-468 limits assumed): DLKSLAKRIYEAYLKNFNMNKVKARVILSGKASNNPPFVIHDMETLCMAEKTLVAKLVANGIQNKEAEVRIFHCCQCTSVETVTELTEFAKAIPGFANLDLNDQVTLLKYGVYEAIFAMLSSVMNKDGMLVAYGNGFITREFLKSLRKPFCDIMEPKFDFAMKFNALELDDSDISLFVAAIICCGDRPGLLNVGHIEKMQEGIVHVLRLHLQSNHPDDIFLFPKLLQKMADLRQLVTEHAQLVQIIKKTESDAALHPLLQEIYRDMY
Method: as §1, §2, §3, §4, §5

Row | Compound | Kd (PPARδ) | Kd (PPARγ) | melting point | Kd (PPARα)
1 | CCCCCCCNC(=O)N(C)c1cccc(-c2ccc(CCC(=O)O)cc2)c1 [Example 2, 3-[3′-(3-heptyl-1-methylureido)biphenyl-4-yl]propanoic acid] | 500 nM | 2 nM | 101 °C | –
2 | CCCCCCCNC(=O)N(C)c1cccc(-c2ccc(CCC(=O)O)c(F)c2)c1 [Example 3, 3-[3-fluoro-3′-(3-heptyl-1-methylureido)biphenyl-4-yl]propanoic acid] | 2000 nM | 4 nM | – | 2000 nM
3 | CCCCCCCNC(=O)N(C)c1cccc(-c2ccc(CCC(=O)NO)cc2)c1 [Example 6, 3-[3′-(3-heptyl-1-methylureido)biphenyl-4-yl]-N-hydroxypropionamide] | – | – | 100 to 101 °C | –
4 | CN(C(=O)Nc1ccc2ccccc2c1)c1cccc(-c2ccc(CCC(=O)O)cc2)c1 [Example 7, 3-[3′-(1-methyl-3-naphthalen-2-ylureido)biphenyl-4-yl]propanoic acid] | – | – | 170 to 171 °C | –
5 | CCCCCCCNC(=S)N(C)c1cccc(-c2ccc(CCC(=O)O)cc2)c1 [Example 8, 3-[3′-(3-heptyl-1-methylthioureido)biphenyl-4-yl]propanoic acid] | – | – | 95 to 96 °C | –
6 | CCCCCCCNC(=O)N(C)c1cccc(-c2ccc(/C=C/C(=O)O)cc2F)c1 [Example 9, (E)-3-[2-fluoro-3′-(3-heptyl-1-methylureido)biphenyl-4-yl]acrylic acid] | – | – | 130 to 131 °C | –
7 | CCCCCCCNC(=O)N(C)c1cccc(-c2ccc(CCC(=O)O)cc2F)c1 [Example 10, 3-[2-fluoro-3′-(3-heptyl-1-methylureido)biphenyl-4-yl]propanoic acid] | – | – | 80 to 82 °C | –
8 | CCCCCCNC(=O)N(C)c1cccc(-c2ccc(CCC(=O)O)cc2)c1 [Example 11, 3-[3′-(3-hexyl-1-methylureido)biphenyl-4-yl]propanoic acid] | – | – | 119 to 120 °C | –
9 | CN(C(=O)Nc1ccc(OCc2ccccc2)cc1)c1cccc(-c2ccc(CCC(=O)O)cc2)c1 [Example 13, 3-{3′-[3-(4-benzyloxyphenyl)-1-methylureido]biphenyl-4-yl}propanoic acid] | 2000 nM | 2 nM | 173.5 to 175 °C | –
10 | CCCCc1ccc(NC(=O)N(C)c2cccc(-c3ccc(CCC(=O)O)cc3)c2)cc1 [Example 14, 3-{3′-[3-(4-butylphenyl)-1-methylureido]biphenyl-4-yl}propanoic acid] | 500 nM | 2 nM | – | 500 nM
11 | CCCCCCCNC(=O)N(C)c1cccc(-c2ccc(CCC(=O)O)cc2OCCOC)c1 [Example 15, 3-[3′-(3-heptyl-1-methylureido)-2-(2-methoxyethoxy)biphenyl-4-yl]propanoic acid] | 2000 nM | 2 nM | – | 2000 nM
12 | CCCCCCCNC(=O)N(C)c1cccc(-c2ccc(CCC(=O)O)cc2OCCCCl)c1 [Example 17, 3-[2-(3-chloropropoxy)-3′-(3-heptyl-1-methylureido)biphenyl-4-yl]propanoic acid] | – | 1 nM | – | 500 nM
13 | CCCCCCCNC(=O)N(C)c1cccc(-c2ccc(CCC(=O)O)cc2OC)c1 [Example 18, 3-[3′-(3-heptyl-1-methylureido)-2-methoxybiphenyl-4-yl]propanoic acid] | 250 nM | 4 nM | – | 2000 nM
14 | CCCCCCCNC(=O)N(C)c1cccc(-c2ccc(/C=C/C(=O)O)cc2OCc2ccccc2)c1 [Example 24, (E)-3-[2-benzyloxy-3′-(3-heptyl-1-methylureido)biphenyl-4-yl]acrylic acid] | 2000 nM | 4 nM | – | 500 nM
15 | CCCCCCCNC(=O)N(C)c1cccc(-c2ccc(CCC(=O)O)cc2OCCC)c1 [Example 25, 3-[3′-(3-heptyl-1-methylureido)-2-propoxybiphenyl-4-yl]propanoic acid] | 120 nM | 0.25 nM | – | 500 nM
16 | CCCCOc1ccc(NC(=O)N(C)c2cccc(-c3ccc(CCC(=O)O)cc3)c2)cc1 [Example 33, 3-{3′-[3-(4-butoxyphenyl)-1-methylureido]biphenyl-4-yl}propanoic acid] | 1000 nM | 4 nM | – | –
17 | CCCCOc1ccc(NC(=O)N(CC)c2cccc(-c3ccc(CCC(=O)O)cc3)c2)cc1 [Example 34, 3-{3′-[3-(4-butoxyphenyl)-1-ethylureido]biphenyl-4-yl}propanoic acid] | 8 nM | 2 nM | – | 500 nM
18 | CCCCCCCNC(=O)N(C)c1cccc(-c2ccc(CCC(=O)O)cc2OCC2CC2)c1 [Example 35, 3-[2-cyclopropylmethoxy-3′-(3-heptyl-1-methylureido)biphenyl-4-yl]propanoic acid] | 1000 nM | 1 nM | – | –
19 | CCCCCCCNC(=O)N(C)c1cccc(-c2ccc(CCC(=O)O)cc2OCCC(F)(F)F)c1 [Example 37, 3-[3′-(3-heptyl-1-methylureido)-2-(3,3,3-trifluoropropoxy)biphenyl-4-yl]propanoic acid] | 2000 nM | 2 nM | – | 250 nM
20 | CCCCCCCNC(=O)N(C)c1cccc(-c2ccc(CCC(=O)O)cc2OCCCCO)c1 [Example 40, 3-[3′-(3-heptyl-1-methylureido)-2-(4-hydroxybutoxy)biphenyl-4-yl]propanoic acid] | – | 1 nM | – | 8000 nM
21 | CCCCCCCNC(=O)N(C)c1cccc(-c2ccc(CCC(=O)O)cc2OCc2ccccc2)c1 [Example 42, 3-[2-benzyloxy-3′-(3-heptyl-1-methylureido)biphenyl-4-yl]propanoic acid] | – | 1 nM | – | 4000 nM
22 | CCCCCCCNC(=O)N(C)c1cccc(-c2ccc(CCC(=O)O)cc2OCc2cccc(F)c2)c1 [Example 43, 3-[2-(3-fluorobenzyloxy)-3′-(3-heptyl-1-methylureido)biphenyl-4-yl]propanoic acid] | – | 2 nM | – | 2000 nM
23 | CCCCCCCNC(=O)N(C)c1cccc(-c2ccc(CCC(=O)O)cc2OCCCCC)c1 [Example 45, 3-[3′-(3-heptyl-1-methylureido)-2-pentyloxybiphenyl-4-yl]propanoic acid] | – | 0.25 nM | – | 120 nM
24 | CCCCCNC(=O)N(C)c1cccc(-c2ccc(CCC(=O)O)cc2OCCCCC)c1 [Example 46, 3-[3′-(1-methyl-3-pentylureido)-2-pentyloxybiphenyl-4-yl]propanoic acid] | – | 0.25 nM | – | 30 nM
25 | CCCCCCCNC(=O)N(C)c1cccc(-c2ccc(CCC(=O)O)cc2OCCOCC)c1 [Example 47, 3-[2-(2-ethoxyethoxy)-3′-(3-heptyl-1-methylureido)biphenyl-4-yl]propanoic acid] | – | 2 nM | – | 1000 nM
26 | CCCCOc1cc(CCC(=O)O)ccc1-c1cccc(N(C)C(=O)Nc2ccccc2)c1 [Example 48, 3-[2-butoxy-3′-(1-methyl-3-phenylureido)biphenyl-4-yl]propanoic acid] | – | 2 nM | – | 2000 nM
27 | CCCCCNC(=O)N(C)c1cccc(-c2ccc(CCC(=O)O)cc2OCCOCC)c1 [Example 49, 3-[2-(2-ethoxyethoxy)-3′-(1-methyl-3-pentylureido)biphenyl-4-yl]propanoic acid] | – | 2 nM | – | 2000 nM

From patent publication US7863332B2, “Biaromatic compound activators of PPARγ receptors and cosmetic/pharmaceutical compositions comprised thereof” (Galderma Research & Development, priority 2004, dated 2011)
